Here are results for 29 molecules from patent publication US8389557B2, “Triazole derivatives useful as Axl inhibitors” (Rigel Pharmaceuticals, Inc., priority 2005, dated 2013).

For the experiment, the target named is T1, Axl (Homo sapiens, UniProt P30530).
T1 construct: endogenous in cells; host or cells: HeLa cells
T1 sequence (P30530 26-894): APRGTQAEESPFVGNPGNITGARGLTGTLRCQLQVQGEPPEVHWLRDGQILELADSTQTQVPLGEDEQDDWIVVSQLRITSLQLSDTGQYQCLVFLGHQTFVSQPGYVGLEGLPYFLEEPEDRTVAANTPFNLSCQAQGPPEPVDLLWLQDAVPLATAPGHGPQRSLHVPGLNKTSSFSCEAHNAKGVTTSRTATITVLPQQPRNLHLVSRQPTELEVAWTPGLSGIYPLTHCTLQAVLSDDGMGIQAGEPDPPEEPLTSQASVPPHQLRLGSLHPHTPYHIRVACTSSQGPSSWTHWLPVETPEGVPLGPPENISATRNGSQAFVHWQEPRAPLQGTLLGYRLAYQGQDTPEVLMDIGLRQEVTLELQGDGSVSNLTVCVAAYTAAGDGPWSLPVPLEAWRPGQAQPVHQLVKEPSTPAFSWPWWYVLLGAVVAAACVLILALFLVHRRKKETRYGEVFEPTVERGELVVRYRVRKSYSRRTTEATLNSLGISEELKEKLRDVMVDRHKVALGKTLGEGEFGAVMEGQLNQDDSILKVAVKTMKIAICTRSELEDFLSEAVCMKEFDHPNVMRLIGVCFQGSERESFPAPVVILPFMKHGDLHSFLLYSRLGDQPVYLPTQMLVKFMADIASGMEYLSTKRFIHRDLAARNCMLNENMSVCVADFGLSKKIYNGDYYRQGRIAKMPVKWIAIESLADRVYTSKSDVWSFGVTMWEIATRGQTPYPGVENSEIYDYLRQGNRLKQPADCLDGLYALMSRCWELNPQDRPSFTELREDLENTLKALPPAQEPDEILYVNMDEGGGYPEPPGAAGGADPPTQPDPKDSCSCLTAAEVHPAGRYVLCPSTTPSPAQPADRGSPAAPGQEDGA
The experiment is described as follows: Phospho-Akt in-cell Western assay (inhibition of Axl activity). Format: cell-based. In short, it runs like this: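 HeLa cells on poly-L-lysine, starved 24 h in 0.5% FCS DMEM with Axl/Fc 500 ng/mL, pre-treated with compound 1 h at 37° C. Axl stimulated 5 min by anti-Axl/anti-mouse antibody cross-linking. Fixed cells probed with anti-phospho-Akt and HRP secondary, chemiluminescence read.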

Setting [1] is: Table 3, Hela cells, Axl antibody cross-linking stimulation, phospho-Akt chemiluminescence.
Where [2] appears, read: inhibition of Axl activity, phospho-Akt in-cell Western assay, Table 1.
Setting [3] is: inhibition of Axl activity, Table 1.
[4] abbreviates: Table 2, Hela cells, Axl antibody cross-linking stimulation, phospho-Akt chemiluminescence.
The mark [5] stands for this setting: Table 6, Hela cells, Axl antibody cross-linking stimulation, phospho-Akt chemiluminescence.

Each structure is given as a SMILES string. pIC50: −log10 of the molar value.

Consider `Nc1nc(Nc2ccc(OCCN3CCCC3)cc2)nn1C(=O)c1cc2ccccc2[nH]1` [compound #6, 5-Amino-1-(1H-indol-2-yl)carbonyl-3-[4-[2-(pyrrolidin-1-yl)ethoxy]phenylamino]-1H-1,2,4-triazole], for which the pIC50 under setting [1] was greater than 6.00.

Under setting [1], `CC1(C)Oc2ccc(C(=O)n3nc(Nc4ccc(OCCN5CCCCC5)cc4)nc3N)cc2NC1=O` [compound 78, 5-amino-1-(2,2-dimethyl-2H-benzo[b][1,4]oxazin-3(4H)-on-6-yl)carbonyl-3-[4-[2-(piperidin-1-yl)ethoxy]phenylamino]-1H-1,2,4-triazole] showed a pIC50 greater than 6.00.

`CC(C)(C)Oc1ccc(C(=O)n2nc(Nc3ccc(OCCN4CCCC4=O)cc3)nc2N)cc1` [compound 342, 5-amino-1-(4-(tert-butoxy)phenyl)carbonyl-3-[4-[2-(pyrrolidin-2-on-1-yl)ethoxy]phenylamino]-1H-1,2,4-triazole] gave a pIC50 under setting [2] greater than 6.00.

With `COc1cc(Nc2nc(N)n(C(=O)c3ccc(C(C)(C)C)cc3)n2)ccc1OCCN1CCCC1` [compound 315, 5-amino-1-(4-(tert-butyl)phenyl)carbonyl-3-[3-methoxy-4-[2-(pyrrolidin-1-yl)ethoxy]phenylamino]-1H-1,2,4-triazole], under setting [2], the negative logarithm of the IC50 (pIC50) is greater than 6.00.

The molecule `COc1ccc(NC(=O)n2nc(N)nc2Nc2ccc(OCCN3CCCCC3)cc2)cc1` [compound 184, 3-amino-N-(4-(methoxy)phenyl)-5-[4-[2-(piperidin-1-yl)ethoxy]phenylamino]-1H-1,2,4-triazole-1-carboxamide] showed a pIC50 (Table 8, Hela cells, Axl antibody cross-linking stimulation, phospho-Akt chemiluminescence) of 5.00 to 6.00.

On to `CC(C)c1ccc(C(=O)n2nc(Nc3ccc4c(c3)OCCO4)nc2N)cc1` [compound 232, 5-amino-3-(1,4-benzodioxan-6-yl)amino-1-(4-iso-propylphenyl)carbonyl-1H-1,2,4-triazole], for which, under setting [3], the pIC50 is 5.00 to 6.00.

On to `CC(C)Oc1cccc(C(=O)n2nc(Nc3ccc4c(c3)OCCO4)nc2N)c1` [compound 112, 5-amino-3-(1,4-benzodioxan-6-yl)amino-1-(3-(iso-propoxy)phenyl)carbonyl-1H-1,2,4-triazole], for which the pIC50 under setting [3] was 5.00 to 6.00.

Take `CS(=O)(=O)N1CCC(Nc2nc(N)n(C(=O)c3ccc4c(c3)OCCO4)n2)CC1` [compound 397, 5-amino-1-(1,4-benzodioxan-6-yl)carbonyl-3-(1-methylsulfonylpiperidin-4-yl)amino-1H-1,2,4-triazole]: where the note is “Table 9, Hela cells, Axl antibody cross-linking stimulation, phospho-Akt chemiluminescence”, the negative-log IC50 (pIC50) was less than 4.70.

The molecule `Nc1nc(Nc2ccc3c(c2)OCCO3)nn1C(=O)c1ccc(O)cc1` [compound 162, 5-amino-3-(1,4-benzodioxan-6-yl)amino-1-(4-(hydroxy)phenyl)carbonyl-1H-1,2,4-triazole] had a pIC50 under setting [3] of 5.00 to 6.00.

Under setting [4], `Nc1nc(Nc2ccc(N3CCOCC3)cc2)n(C(=O)c2cccc(Cl)c2)n1` [compound 75, 3-amino-1-(3-(chloro)phenyl)carbonyl-5-(4-(morpholin-4-yl)phenylamino)-1H-1,2,4-triazole] showed a pIC50 of less than 4.70.

Molecule `CSc1ccc(C(=O)n2nc(Nc3ccc(OCCN4CCCC4)cc3)nc2N)cc1` [compound 287, 5-amino-1-(4-(methylthio)phenyl)carbonyl-3-[4-[2-(pyrrolidin-1-yl)ethoxy]phenylamino]-1H-1,2,4-triazole] gave a pIC50 under setting [2] greater than 6.00.

Under setting [4], `CC(C)(C)c1ccc(C(=O)n2nc(N)nc2Nc2ccc(OCCN3CCCC3)cc2)cc1` [compound 303, 3-amino-1-(4-(tert-butyl)phenyl)carbonyl-5-[4-[2-(pyrrolidin-1-yl)ethoxy]phenylamino]-1H-1,2,4-triazole] showed a negative logarithm of the IC50 (pIC50) of 5.00 to 6.00.

For the molecule `CC(C)Oc1cccc(C(=O)n2nc(Nc3cccc(-c4cnco4)c3)nc2N)c1` [compound 170, 5-amino-1-(3-(iso-propoxy)phenyl)carbonyl-3-[3-(1,3-oxazol-5-yl)phenylamino]-1H-1,2,4-triazole], the pIC50 under setting [3] is 5.00 to 6.00.

Molecule `Nc1nc(Nc2ccc3c(c2)OCCO3)nn1C(=O)c1ccccc1F` [compound 99, 5-amino-3-(1,4-benzodioxan-6-yl)amino-1-(2-(fluoro)phenyl)carbonyl-1H-1,2,4-triazole] gave a negative logarithm of the IC50 (pIC50) under setting [3] of 4.70 to 5.00.

`Nc1nc(Nc2ccc(OCCN3CCCC3)c(F)c2)n(C(=O)c2ccc(N3CCOCC3)cc2)n1` [compound 304, 3-amino-1-(4-(morpholin-4-yl)phenyl)carbonyl-5-[3-fluoro-4-[2-(pyrrolidin-1-yl)ethoxy]phenylamino]-1H-1,2,4-triazole] gave a negative-log IC50 (pIC50) under setting [4] of 4.70 to 5.00.

In turn, `CC(=O)N(C)c1ccc(Nc2nc(N)n(C(=O)Nc3ccc(Cl)cc3)n2)cc1` [compound 174, 3-[4-(acetyl(methyl)amino)phenyl]amino-5-amino-N-(4-chlorophenyl)-1H-1,2,4-triazole-1-carboxamide] had a pIC50 (Table 7, Hela cells, Axl antibody cross-linking stimulation, phospho-Akt chemiluminescence) of less than 4.70.

Turning to `COC(=O)c1cccc(C(=O)n2nc(Nc3ccc(OCCN4CCCCC4)cc3)nc2N)c1` [compound 79, 5-amino-1-(3-(methoxycarbonyl)phenyl)carbonyl-3-[4-[2-(piperidin-1-yl)ethoxy]phenylamino]-1H-1,2,4-triazole], the negative logarithm of the IC50 (pIC50) under setting [3] was 5.00 to 6.00.

As for `COc1ccc(C(=O)n2nc(Nc3ccc(OCCN4CCCCC4)cc3)nc2N)cc1OC` [compound #21, 5-Amino-1-(3,4-(dimethoxy)phenyl)carbonyl-3-[4-[2-(piperidin-1-yl)ethoxy]phenylamino]-1H-1,2,4-triazole], under setting [2], the pIC50 was greater than 6.00.

On to `Nc1nc(Nc2ccc(OCCN3CCCC3)cc2)nn1C(=O)c1ccc2[nH]ccc2c1` [compound #3, 5-Amino-1-(1H-indol-5-yl)carbonyl-3-[4-[2-(pyrrolidin-1-yl)ethoxy]phenylamino]-1H-1,2,4-triazole], for which the negative-log IC50 (pIC50) under setting [1] was greater than 6.00.

Where the note is “Table 5, Hela cells, Axl antibody cross-linking stimulation, phospho-Akt chemiluminescence”, `Cc1cccc(C(=O)n2nc(Nc3ccc4cn(C)nc4c3)nc2N)c1` [compound 253, 5-amino-3-(1H-2-methyl-indazol-6-yl)amino-1-(3-methylphenyl)carbonyl-1H-1,2,4-triazole] had a pIC50 of 5.00 to 6.00.

Molecule `CN(C)c1ccc(C(=O)n2nc(N)nc2NC2CCN(S(C)(=O)=O)CC2)cc1` [compound 396, 3-amino-1-(4-(dimethylamino)phenyl)carbonyl-5-(1-methylsulfonylpiperidin-4-yl)amino-1H-1,2,4-triazole] showed a negative-log IC50 (pIC50) under setting [5] of less than 4.70.

Consider `Cc1cccc(C(=O)n2nc(N)nc2Nc2ccc3c(c2)N(C(=O)OC(C)(C)C)CCO3)c1` [compound 167], for which the negative logarithm of the IC50 (pIC50) under setting [5] was less than 4.70.

Under setting [3], `Nc1nc(Nc2ccc3c(c2)OCCO3)nn1C(=O)c1ccc(OCc2ccccc2)cc1` [compound 142, 5-amino-1-(4-(benzyloxy)phenyl)carbonyl-3-(1,4-benzodioxan-6-yl)amino-1H-1,2,4-triazole] showed a negative-log IC50 (pIC50) of 5.00 to 6.00.

As to `CC(C)Oc1ccc(Nc2nc(N)n(C(=O)c3ccc4c(c3)NC(=O)C(C)(C)O4)n2)cc1` [compound 65, 5-amino-1-(2,2-dimethyl-2H-benzo[b][1,4]oxazin-3(4H)-on-6-yl)carbonyl-3-(4-(iso-propoxy)phenyl)amino-1H-1,2,4-triazole], the pIC50 under setting [1] was 5.00 to 6.00.

As for `COc1cc(OC)cc(C(=O)n2nc(Nc3ccc(OCCN4CCCC4)cc3)nc2N)c1` [compound #22, 5-Amino-1-(3,5-(dimethoxy)phenyl)carbonyl-3-[4-[2-(pyrrolidin-1-yl)ethoxy]phenylamino]-1H-1,2,4-triazole], the pIC50 under setting [2] is greater than 6.00.

On to `Nc1nc(Nc2ccc3c(c2)OCCO3)n(C(=O)c2cccc(OCc3ccccc3)c2)n1` [compound 155, 3-amino-1-(3-(benzyloxy)phenyl)carbonyl-5-(1,4-benzodioxan-6-yl)amino-1H-1,2,4-triazole], for which, under setting [4], the pIC50 is less than 4.70.

Take `Cc1ccc(C(=O)n2nc(Nc3ccc(F)cc3)nc2N)cc1` [compound 123, 5-amino-3-[4-(fluoro)phenylamino]-1-(4-(methyl)phenyl)carbonyl-1H-1,2,4-triazole]: the pIC50 under setting [3] was 4.70 to 5.00.

`CC(C)Oc1ccc(Nc2nc(N)n(C(=O)c3cccc([N+](=O)[O-])c3)n2)cc1` [compound 71, 5-amino-3-[4-(iso-propoxy)phenylamino]-1-(3-(nitro)phenyl)carbonyl-1H-1,2,4-triazole] had a pIC50 under setting [3] of 5.00 to 6.00.

Consider `Cc1cccc(C(=O)n2nc(Nc3ccc(OCCN4CCCC4)cc3)nc2N)c1` [compound #9, 5-Amino-1-(3-methylphenyl)carbonyl-3-[4-[2-(pyrrolidin-1-yl)ethoxy]phenylamino]-1H-1,2,4-triazole], for which, under setting [2], the pIC50 is greater than 6.00.

A word on the pIC50: it is the IC50 on a negative log10 scale, so that one unit is a factor of ten. High values mean a low IC50, low ones a high IC50.
